Experiments:
[1] = Osmolality of carrageenan preparations; format: physicochemical
[2] = tested on: human rhinovirus 1a (HRV1a); assay: Inhibition of human rhinovirus 1a infection of Hela cells (cell viability, IC50)
Description: (§1) Hela cells were seeded into 96 well plates with a cell density of 5*10^3 cells per well and cultivated for 24 hours in a standard DMEM tissue culture medium containing 4.5 g/I glucose. Virus suspensions containing carrageenan polymer at varying concentrations of between 0 and 150 μg/ml, in combination with NaCl and sorbitol (as indicated in the respective legends to each table) in a dilution series, were incubated for 30 minutes. Cells were infected with these virus suspensions containing the test substances and 7*10^3 (HRV1a) or 5*10^4 (HRV8) infectious units per well. 30 minutes after infection the virus inoculum was removed and substituted by virus-free infection medium containing carrageenan polymer, NaCl salt and sorbitol in the concentrations to be tested. The cells were incubated for 2 to 3 days at 33° C. […] An incubation of cells with the same dilution series of test substances (i.e. carragenan component plus osmolalitiy adjusting agents) in the absence of viral infection was performed to monitor for a potential toxicity of the treatment. Calculation of IC50 values was performed with standard fitting software ExcelFit.

human coronavirus OC43 = assay: Hemagglutination inhibition assay, minimal inhibitory concentration for prevention of hCoV OC43 attachment to chicken RBCs; format: cell-based
Description: On a 96-well plate, two hemagglutination units of hCoV OC43/well were incubated with a ½-log dilution series of test or control samples for 10 min at room temperature. Final assay concentrations were 0.002 to 3 μg/ml iota-carrageenan in aqueous 0.5, 0.9, 2.0, 2.3 or 2.6% NaCl solution in the presence or absence of 7% sorbitol. Then, a suspension of chicken RBCs (1% v/v in PBS) was added to each well to allow hemagglutination of red blood cells (RBCs) by the virus for 1.5 hrs at 4° C. At the time point of assay evaluation, control RBCs in the absence of carrageenan were fully agglutinated, whereas hemagglutination was inhibited in the presence of carrageenan up to a sample-specific concentration, the minimal inhibitory concentration.

[3] = tested on: human rhinovirus 8 (HRV8); assay: Inhibition of human rhinovirus 8 infection of Hela cells (cell viability, IC50)
Description: as §1

[4] = 2% NaCl (670 mOsm/kg) compared to 0.5% NaCl (174 mOsm/kg)
[5] = 2.3% NaCl (776 mOsm/kg) compared to 0.5% NaCl (174 mOsm/kg)
[6] = 2.6% NaCl (872 mOsm/kg) compared to 0.5% NaCl (174 mOsm/kg)
[7] = 0.9% NaCl (295 mOsm/kg) compared to 0.5% NaCl (174 mOsm/kg)

iota-carrageenan [iota carrageenan]
osmolality ([1]; Table 1, solution with 0.9% NaCl): 295 mOsm/kg
osmolality ([1]; Table 1, solution with 2% NaCl): 670 mOsm/kg
osmolality ([1]; Table 1, solution with 2.3% NaCl): 776 mOsm/kg
osmolality ([1]; Table 1, solution with 2.6% NaCl): 872 mOsm/kg
osmolality ([1]; Table 4, solution with 0.9% NaCl): 295 mOsm/kg
osmolality ([1]; Table 4, solution with 2% NaCl): 670 mOsm/kg
osmolality ([1]; Table 4, solution with 2.3 NaCl): 776 mOsm/kg
osmolality ([1]; Table 4, solution with 2.6% NaCl): 872 mOsm/kg
osmolality ([1]; Table 5, solution with 0.5% NaCl + 7% sorbitol): 597 mOsm/kg
osmolality ([1]; Table 5, solution with 0.9% NaCl + 7% sorbitol): 733 mOsm/kg
osmolality ([1]; Table 5, solution with 2.3% NaCl): 748 mOsm/kg
Increase of IC50 value, HRV1a inhibition ([2]; 0.9% NaCl (295 mOsm/kg) compared to hypoosmolar 0.5% NaCl solution (174 mOsm/kg)): 3.1-fold* ^
Increase of IC50 value, HRV1a inhibition [2, 4]: 14.5-fold*
Increase of IC50 value, HRV1a inhibition [2, 5]: 22.3-fold*
Increase of IC50 value, HRV1a inhibition [2, 6]: 33.7-fold*
reduction in inhibitory efficacy on human rhinovirus replication ([2]; isoosmolar (0.9%) and hyperosmolar (2%, 2.3%, 2.6% NaCl) compared with hypoosmolar solution (0.5% NaCl), summary of Table 1): ≤ 34 fold
Increase of the minimal inhibitory concentration, hCV OC43 (human coronavirus OC43; 0.5% NaCl + 7% sorbitol (597 mOsm/kg) compared to 0.5% NaCl (174 mOsm/kg)): 1-fold (ns)
Increase of the minimal inhibitory concentration, hCV OC43 (human coronavirus OC43; [7]): 1-fold (ns)
Increase of the minimal inhibitory concentration, hCV OC43 (human coronavirus OC43; 0.9% NaCl + 7% sorbitol (733 mOsm/kg) compared to 0.5% NaCl (174 mOsm/kg)): 1-fold (ns)
Increase of the minimal inhibitory concentration, hCV OC43 (human coronavirus OC43; [4]): 10-fold*
Increase of the minimal inhibitory concentration, hCV OC43 (human coronavirus OC43; 2.3% NaCl (748 mOsm/kg) compared to 0.5% NaCl (174 mOsm/kg)): 10-fold*
Increase of the minimal inhibitory concentration, hCV OC43 (human coronavirus OC43; 2.3 NaCl (776 mOsm/kg) compared to 0.5% NaCl (174 mOsm/kg)): 10-fold*
Increase of the minimal inhibitory concentration, hCV OC43 (human coronavirus OC43; [6]): 10-fold*
Increase of IC50 value, HRV8 inhibition [3, 7]: 1.8-fold (ns)
Increase of IC50 value, HRV8 inhibition [3, 4]: 3.6-fold*
Increase of IC50 value, HRV8 inhibition [3, 5]: 6.9-fold*
Increase of IC50 value, HRV8 inhibition [3, 6]: 7.5-fold*

— patent US10660914B2, “Stuffy nose deblocking composition having antiviral activity” (MARINOMED BIOTECH AG, priority 2015, dated 2020)
